Like-named read-outs stand apart in the source and are kept apart here.
Key:
Zymoseptoria tritici = experiment: Fungicidal activity: leaf blotch of wheat (SEPTTR), wheat seedlings, booth sprayer to run-off or track spray; type: in vivo; settings: for pest or weed control at 121.5 g/ha: Low-Volume Cereal Activity at 121.5 g/H; for pest or weed control at 100 ppm: High-Volume Cereal Activity at 100 ppm
Puccinia triticina = experiment: Fungicidal activity: wheat brown rust (PUCCRT), wheat seedlings, booth sprayer to run-off or track spray; type: in vivo; settings: for pest or weed control at 121.5 g/ha: Low-Volume Cereal Activity at 121.5 g/H; for pest or weed control at 100 ppm: High-Volume Cereal Activity at 100 ppm
[1] = 24 h, 1 Day Protectant, read-out: SEPTTR 1DP
[2] = 72 h, 3 Day Curative, read-out: SEPTTR 3DC
[3] = 24 h, 1 Day Protectant, read-out: PUCCRT 1DP
[4] = 72 h, 3 Day Curative, read-out: PUCCRT 3DC
[5] = 3DC (Day Curative), read-out: SEPTTR 3DC
[6] = 3DC (Day Curative), read-out: PUCCRT 3DC

Row | SMILES | pest or weed control at 121.5 g/ha (Zymoseptoria tritici; [1]) [%] | pest or weed control at 121.5 g/ha (Zymoseptoria tritici; [2]) [%] | pest or weed control at 121.5 g/ha (Puccinia triticina; [3]) [%] | pest or weed control at 121.5 g/ha (Puccinia triticina; [4]) [%] | pest or weed control at 100 ppm (Zymoseptoria tritici; [1]) [%] | pest or weed control at 100 ppm (Zymoseptoria tritici; [5]) [%] | pest or weed control at 100 ppm (Puccinia triticina; [3]) [%] | pest or weed control at 100 ppm (Puccinia triticina; [6]) [%]
1 | COc1ccnc(C(=O)N[C@@H](C)C(=O)O[C@@H](C)[C@H](Cc2ccc(C)cc2)c2ccccc2)c1OC(C)=O [compound 220] | 80 to 100 | 80 to 100 | 0 to 80 | 0 to 80 | – | – | – | –
2 | COc1ccnc(C(=O)N[C@@H](C)C(=O)O[C@@H](C)[C@@H](COCc2ccccc2)Cc2ccccc2)c1O [compound 132] | – | – | – | – | 0 to 80 | 80 to 100 | 80 to 100 | 80 to 100
3 | CC[C@H](CC1CC1)[C@@H](Cc1ccccc1)[C@H](C)OC(=O)[C@H](C)NC(=O)c1nccc(OC)c1OCOC(C)=O [compound 173] | 80 to 100 | 80 to 100 | 80 to 100 | 0 to 80 | – | – | – | –
4 | CCOCC(=O)OCOc1c(OC)ccnc1C(=O)N[C@@H](C)C(=O)O[C@@H](C)[C@@H](COCc1ccc(F)cc1)Cc1ccc(F)cc1 [compound 253] | 80 to 100 | 0 to 80 | 80 to 100 | 0 to 80 | – | – | – | –
5 | CC[C@H](NC(=O)c1nccc(OC)c1OCOC(C)=O)C(=O)OC(C)C(Cc1ccccc1)Cc1ccccc1 (stereo partly drawn) [compound 269] | 80 to 100 | 80 to 100 | 80 to 100 | 0 to 80 | – | – | – | –
6 | CC[C@H](NC(=O)c1nccc(OC)c1OC(C)=O)C(=O)OC(C)C(Cc1ccccc1)Cc1ccccc1 (stereo partly drawn) [compound 262] | 0 to 80 | – | 80 to 100 | 0 to 80 | – | – | – | –
7 | COc1ccnc(C(=O)N[C@@H](C)C(=O)O[C@@H](C)[C@H](Cc2ccccc2)C(C)(C)OCc2ccccc2)c1OC(C)=O [compound 230] | 80 to 100 | 80 to 100 | 80 to 100 | 0 to 80 | – | – | – | –
8 | CCCOC(C)(C)[C@@H](Cc1ccccc1)[C@H](C)OC(=O)[C@H](C)NC(=O)c1nccc(OC)c1OCOC(C)=O [compound 207] | 80 to 100 | 80 to 100 | 80 to 100 | 80 to 100 | – | – | – | –
9 | CC[C@H](NC(=O)c1nccc(OC)c1OC(C)=O)C(=O)O[C@@H](C)C(Cc1ccc(OC)cc1)Cc1cccc(OC)c1 (stereo partly drawn) [compound 273] | 80 to 100 | 0 to 80 | 0 to 80 | 0 to 80 | – | – | – | –
10 | CCCOC[C@@H](Cc1ccc(OC)cc1)[C@H](C)OC(=O)[C@H](C)NC(=O)c1nccc(OC)c1O [compound 143] | – | – | – | – | 80 to 100 | 0 to 80 | 80 to 100 | 0 to 80
11 | COc1ccc(C[C@H](COCC2CC2)[C@H](C)OC(=O)[C@H](C)NC(=O)c2nccc(OC)c2OCOC(C)=O)cc1 [compound 280] | 0 to 80 | 80 to 100 | 80 to 100 | 80 to 100 | – | – | – | –
12 | CCC[C@@H](Cc1ccccc1)[C@H](C)OC(=O)[C@H](C)NC(=O)c1nccc(OC)c1O [compound 113] | – | – | – | – | 0 to 80 | 80 to 100 | 80 to 100 | 80 to 100
13 | CC[C@H](CCCc1ccccc1)[C@@H](CC(C)C)[C@H](C)OC(=O)C(C)NC(=O)c1nccc(OC)c1OC(C)=O (stereo partly drawn) [compound 172] | 0 to 80 | 0 to 80 | 80 to 100 | 0 to 80 | – | – | – | –
14 | CCCC[C@H](c1ccccc1)[C@H](C)OC(=O)[C@H](C)NC(=O)c1nccc(OC)c1OC(=O)C(C)C [compound 198] | 80 to 100 | 80 to 100 | 0 to 80 | 0 to 80 | – | – | – | –
15 | CCCC[C@@H]([C@H](C)OC(=O)[C@H](C)NC(=O)c1nccc(OC)c1O)[C@H](CC)Oc1ccccc1 [compound 115] | – | – | – | – | – | 80 to 100 | 80 to 100 | 80 to 100
16 | COc1ccc(C[C@@H]([C@H](C)OC(=O)[C@H](C)NC(=O)c2nccc(OC)c2OCOC(C)=O)C(C)(C)Oc2ccc(F)cc2F)cc1 [compound 279] | 0 to 80 | 80 to 100 | 80 to 100 | 0 to 80 | – | – | – | –
17 | CC[C@H](Oc1ccccc1)[C@@H](Cc1ccccc1)[C@H](C)OC(=O)[C@H](C)NC(=O)c1nccc(OC)c1O [compound 117] | – | – | – | – | 80 to 100 | 0 to 80 | 80 to 100 | 80 to 100
